# Experimental data: PubChem BioAssay (NCI)
#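 Exposure lasted 48 hours, with cells grown in 96-well plates and compounds tested at five concentrations. GI50 marks 50% less growth. TGI marks complete inhibition of growth.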
# Columns and labels:
# Test in all cases: DTP human tumour cell line panel, 48 h
# TK-10 renal = test system: TK-10 renal
# HOP-62 NSCLC = test system: HOP-62 NSCLC
# PC-3 prostate = test system: PC-3 prostate
# NCI-H460 lung = test system: NCI-H460 lung
# HCC-2998 colon = test system: HCC-2998 colon
# HCT-116 colon = test system: HCT-116 colon
# NCI-H226 lung = test system: NCI-H226 lung
# OVCAR-3 ovarian = test system: OVCAR-3 ovarian
# SK-MEL-28 melanoma = test system: SK-MEL-28 melanoma
# HT29 colon = test system: HT29 colon
# NCI/ADR-RES ovarian = test system: NCI/ADR-RES ovarian
# T-47D breast = test system: T-47D breast
# SF-539 CNS = test system: SF-539 CNS
# HL-60(TB) leukemia = test system: HL-60(TB) leukemia
# MOLT-4 leukemia = test system: MOLT-4 leukemia
# HS 578T breast = test system: HS 578T breast
# ACHN renal = test system: ACHN renal
# DU-145 prostate = test system: DU-145 prostate
# OVCAR-5 ovarian = test system: OVCAR-5 ovarian
# OVCAR-4 ovarian = test system: OVCAR-4 ovarian
# SN12C renal = test system: SN12C renal
# SNB-19 CNS = test system: SNB-19 CNS
# BT-549 breast = test system: BT-549 breast
# MDA-MB-231 breast = test system: MDA-MB-231 breast
# MALME-3M melanoma = test system: MALME-3M melanoma
# SF-268 CNS = test system: SF-268 CNS
# IGROV1 ovarian = test system: IGROV1 ovarian
# U251 CNS = test system: U251 CNS
# A549 NSCLC = test system: A549 NSCLC
# SK-MEL-5 melanoma = test system: SK-MEL-5 melanoma
# 786-0 renal = test system: 786-0 renal
# SNB-75 CNS = test system: SNB-75 CNS
# M14 melanoma = test system: M14 melanoma
# SK-OV-3 ovarian = test system: SK-OV-3 ovarian
# SK-MEL-2 melanoma = test system: SK-MEL-2 melanoma
# NCI-H23 lung = test system: NCI-H23 lung
# SW-620 colon = test system: SW-620 colon
# UO-31 renal = test system: UO-31 renal
# K-562 leukemia = test system: K-562 leukemia
# HCT-15 colon = test system: HCT-15 colon
# OVCAR-8 ovarian = test system: OVCAR-8 ovarian
# UACC-62 melanoma = test system: UACC-62 melanoma
# LOX IMVI melanoma = test system: LOX IMVI melanoma
# HOP-92 NSCLC = test system: HOP-92 NSCLC
# NCI-H522 lung = test system: NCI-H522 lung
# A498 renal = test system: A498 renal
# KM12 colon = test system: KM12 colon
# SR leukemia = test system: SR leukemia
# EKVX NSCLC = test system: EKVX NSCLC
# CCRF-CEM leukemia = test system: CCRF-CEM leukemia
# UACC-257 melanoma = test system: UACC-257 melanoma
# RPMI-8226 leukemia = test system: RPMI-8226 leukemia
# CAKI-1 renal = test system: CAKI-1 renal
smiles,measurement,setting,value
CC(C)OC(=O)Nc1ccc(-c2nc(-c3cccc(OCCN4CCOCC4)c3)c(-c3ccnc(Br)c3)[nH]2)cc1,GI50,TK-10 renal,6.15 µM
same,TGI,TK-10 renal,> 100 µM
same,GI50,HOP-62 NSCLC,3.04 µM
same,TGI,HOP-62 NSCLC,> 100 µM
same,GI50,PC-3 prostate,2.96 µM
same,TGI,PC-3 prostate,> 100 µM
same,GI50,NCI-H460 lung,3.63 µM
same,TGI,NCI-H460 lung,> 100 µM
same,GI50,HCC-2998 colon,3.1 µM
same,TGI,HCC-2998 colon,> 100 µM
same,GI50,HCT-116 colon,2.96 µM
same,TGI,HCT-116 colon,> 100 µM
same,GI50,NCI-H226 lung,3.75 µM
same,TGI,NCI-H226 lung,> 100 µM
same,GI50,OVCAR-3 ovarian,4.91 µM
same,TGI,OVCAR-3 ovarian,> 100 µM
same,GI50,SK-MEL-28 melanoma,1.67 µM
same,TGI,SK-MEL-28 melanoma,4.16 µM
same,GI50,HT29 colon,2.69 µM
same,TGI,HT29 colon,> 100 µM
same,GI50,NCI/ADR-RES ovarian,4.3 µM
same,TGI,NCI/ADR-RES ovarian,> 100 µM
same,GI50,T-47D breast,2.61 µM
same,TGI,T-47D breast,> 100 µM
same,GI50,SF-539 CNS,1.52 µM
same,TGI,SF-539 CNS,5.46 µM
same,GI50,HL-60(TB) leukemia,1.87 µM
same,TGI,HL-60(TB) leukemia,4.59 µM
same,GI50,MOLT-4 leukemia,2.2 µM
same,TGI,MOLT-4 leukemia,> 100 µM
same,GI50,HS 578T breast,0.461 µM
same,TGI,HS 578T breast,2.76 µM
same,GI50,ACHN renal,3.22 µM
same,TGI,ACHN renal,> 100 µM
same,GI50,DU-145 prostate,4.8 µM
same,TGI,DU-145 prostate,> 100 µM
same,GI50,OVCAR-5 ovarian,4.97 µM
same,TGI,OVCAR-5 ovarian,> 100 µM
same,GI50,OVCAR-4 ovarian,4.79 µM
same,TGI,OVCAR-4 ovarian,> 100 µM
same,GI50,SN12C renal,4.29 µM
same,TGI,SN12C renal,> 100 µM
same,GI50,SNB-19 CNS,3.22 µM
same,TGI,SNB-19 CNS,> 100 µM
same,GI50,BT-549 breast,2.86 µM
same,TGI,BT-549 breast,> 100 µM
same,GI50,MDA-MB-231 breast,3.54 µM
same,TGI,MDA-MB-231 breast,56.7 µM
same,GI50,MALME-3M melanoma,1.56 µM
same,TGI,MALME-3M melanoma,3.39 µM
same,GI50,SF-268 CNS,4.05 µM
same,TGI,SF-268 CNS,> 100 µM
same,GI50,IGROV1 ovarian,4.39 µM
same,TGI,IGROV1 ovarian,> 100 µM
same,GI50,U251 CNS,2.01 µM
same,TGI,U251 CNS,> 100 µM
same,GI50,A549 NSCLC,3.49 µM
same,TGI,A549 NSCLC,> 100 µM
same,GI50,SK-MEL-5 melanoma,1.79 µM
same,TGI,SK-MEL-5 melanoma,3.27 µM
same,GI50,786-0 renal,1.24 µM
same,TGI,786-0 renal,3.54 µM
same,GI50,SNB-75 CNS,0.611 µM
same,TGI,SNB-75 CNS,5.17 µM
same,GI50,M14 melanoma,2.78 µM
same,TGI,M14 melanoma,11.7 µM
same,GI50,SK-OV-3 ovarian,2.49 µM
same,TGI,SK-OV-3 ovarian,5.8 µM
same,GI50,SK-MEL-2 melanoma,2.87 µM
same,TGI,SK-MEL-2 melanoma,9.13 µM
same,GI50,NCI-H23 lung,1.99 µM
same,TGI,NCI-H23 lung,4.72 µM
same,GI50,SW-620 colon,3.12 µM
same,TGI,SW-620 colon,> 100 µM
same,GI50,UO-31 renal,2.84 µM
same,TGI,UO-31 renal,> 100 µM
same,GI50,K-562 leukemia,1.58 µM
same,TGI,K-562 leukemia,> 100 µM
same,GI50,HCT-15 colon,1.3 µM
same,TGI,HCT-15 colon,4.26 µM
same,GI50,OVCAR-8 ovarian,4.32 µM
same,TGI,OVCAR-8 ovarian,> 100 µM
same,GI50,UACC-62 melanoma,2.31 µM
same,TGI,UACC-62 melanoma,6.28 µM
same,GI50,LOX IMVI melanoma,1.56 µM
same,TGI,LOX IMVI melanoma,3.39 µM
same,GI50,HOP-92 NSCLC,2.45 µM
same,TGI,HOP-92 NSCLC,7.99 µM
same,GI50,NCI-H522 lung,3.86 µM
same,TGI,NCI-H522 lung,> 100 µM
same,GI50,A498 renal,1.23 µM
same,TGI,A498 renal,4.12 µM
same,GI50,KM12 colon,3.12 µM
same,TGI,KM12 colon,> 100 µM
same,GI50,SR leukemia,2.4 µM
same,TGI,SR leukemia,> 100 µM
same,GI50,EKVX NSCLC,2.39 µM
same,TGI,EKVX NSCLC,7.55 µM
same,GI50,CCRF-CEM leukemia,2.46 µM
same,TGI,CCRF-CEM leukemia,> 100 µM
same,GI50,UACC-257 melanoma,2.72 µM
same,TGI,UACC-257 melanoma,8.82 µM
same,GI50,RPMI-8226 leukemia,0.549 µM
same,TGI,RPMI-8226 leukemia,2.91 µM
same,GI50,CAKI-1 renal,2.85 µM
same,TGI,CAKI-1 renal,> 100 µM
